For data set [1], the system named is Candida albicans TIMM 1623. Nature of the data set: Murine Candida infection model (subcutaneous administration). The class given is in vivo. The conditions noted are these: cyclophosphamide-compromised male mice; 0.1 mg/kg subcutaneously, 4 times; observed 21 days after infection. On the procedure:
As a Test Compound, the compound of Example 3 was used.
Male mice (4 week-old, 5 mice/group) were administered intraperitoneally with 200 mg/kg of cyclophosphamide 4 days before infection and 100 mg/kg on the following day after the infection to obtain transient compromised condition. Candida albicans TIMM 1623 cultured on SDA at 35° C. was suspended in a sterile physiological saline solution to prepare a suspension at 1.5×10^5 cells/mL. Each 0.2 mL of the solution was inoculated into the tail vein of each mouse to induce infection (about 3×10^4 CFU/mouse). The Test Compound was dissolved in a small amount of 0.1 mol/L hydrochloric acid, and the solution was diluted with a sterile physiological saline solution to obtain a 0.01 mg/mL solution. The solution was administered subcutaneously at the dose of 10 mL/kg body weight of mouse (0.1 mg/kg body weight). The administrations were conducted once 2 hours after the infection and once daily for the following consecutive 3 days, totaling 4 times. To a group receiving no Test Compound, an equal amount of a sterile physiological saline solution was administered. Viability of the mice was observed and recorded for 21 days after infection.

The nature of data set [2]: Repeated intravenous dose toxicity study in mice (plasma AST, ALT). Format: in vivo. The note with it: ICR male mice, i.v. once daily for 3 days (25 mg/kg or 6.25 mg/kg), day 1 after completion; relative to saline control. On the procedure: As Test Compounds, the compound of Example 3, Comparative Compound 2 and Comparative Compound 3 were used.
A repeated intravenous dose toxicity study was conducted using ICR strain male mice (6 week-old, 5 mice/group). The administration solutions were prepared by adding 3-fold molar amount of hydrochloric acid to the respective Test Compounds, and further adding a sterile physiological saline solution. The compounds of Example 3 and Comparative Compound 2, respectively at 25 mg/kg, and Comparative Compound 1 at 6.25 mg/kg were administered into the tail vein once daily for 3 days. To the control group, a sterile physiological saline solution was administered.
On day 1 after the completion of the administration, each mouse was etherized. Blood samples were taken from the abdominal vein using an injection syringe containing heparin as an anticoagulant (Novo-Heparin 1,000 units for injection, Aventis Pharma Ltd.), and the samples were centrifuged (3,300 rpm, 4° C., 10 min; Kubota Model 5900) to obtain the plasma. The blood biochemical tests with respect to aspartate aminotransferase (AST) and alanine aminotransferase (ALT) for the samples were conducted according to the JSCC consensus measuring method. The values for the Test Compounds and Comparative Compounds were calculated based on the values for the control (administration of a sterile physiological saline solution) as 100.

A further data set concerns the target T1, human CYP2D6 (Homo sapiens, UniProt P10635).
T1 construct: host or cells: insect cells (microsomes)
Nature of the data set: Inhibitory effect on CYP2D6. The class given is in vitro ADME. The conditions noted are these: microsome from insect cells expressing human CYP2D6, fluorescent substrate, 37° C. 30 min, 72 to 0.0329 μmol/L. On the procedure: Inhibitory effects of the compound of Example 3, Comparative Compound 1, Comparative Compound 2 and Comparative Compound 3 on human hepatic drug-metabolizing enzyme CYP2D6 were compared. A microsome prepared from insect cells expressing human CYP2D6 was used, and a substrate was 3-[2-(N,N-diethyl-N-methylammonium)ethyl]-7-methoxy-4-methylcoumarin iodide. The reaction was conducted in a phosphate buffer solution (100 mmol/L, pH 7.4) including final concentrations of 20 nmol/L for the enzyme, 1.5 μmol/L for the substrate, 1.55 mmol/L for nicotinamide adenine dinucleotide phosphate oxidized form (NADP+), 3.3 mmol/L for glucose-6-phosphate, 3.3 mmol/L for magnesium chloride and 0.4 Units/mL for glucose-6-phosphate dehydrogenase (G6PDH). The concentrations of the respective compounds in the reaction solution were prepared in a 3-fold dilution series with a final concentration range of 72 to 0.0329 μmol/L. The reaction solutions were incubated at 37° C. for 30 min. Then the reaction was terminated by a 80% acetonitrile solution (containing tris at a final concentration of 0.1 mol/L), and the enzyme activity was determined by measuring fluorescence with wavelength of 465 nm using excitation wavelength of 400 nm. The inhibitory effect was expressed as IC50. Quinidine was used as a positive control.

Some results are limits rather than exact numbers.

T1 sequence (P10635 whole entry): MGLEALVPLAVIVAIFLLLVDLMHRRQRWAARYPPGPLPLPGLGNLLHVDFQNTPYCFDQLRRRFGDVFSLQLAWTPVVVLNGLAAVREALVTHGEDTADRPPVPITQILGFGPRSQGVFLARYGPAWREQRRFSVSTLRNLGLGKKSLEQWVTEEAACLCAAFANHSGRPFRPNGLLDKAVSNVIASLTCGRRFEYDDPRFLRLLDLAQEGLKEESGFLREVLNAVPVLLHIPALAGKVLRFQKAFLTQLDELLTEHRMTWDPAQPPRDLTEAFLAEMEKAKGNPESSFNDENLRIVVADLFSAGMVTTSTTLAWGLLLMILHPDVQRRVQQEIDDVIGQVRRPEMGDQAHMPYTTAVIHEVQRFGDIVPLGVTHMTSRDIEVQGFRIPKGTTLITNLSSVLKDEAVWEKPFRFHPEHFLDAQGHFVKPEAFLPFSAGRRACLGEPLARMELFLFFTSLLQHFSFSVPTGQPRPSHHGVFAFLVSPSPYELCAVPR

As usually defined, the IC50 is the concentration at which inhibition is half-maximal. With `CCCCOC(=O)N=C(N)c1ccc(OCCCC2CCN(CCCOc3ccc(C(N)=NC(=O)OCCCC)cc3)CC2)cc1` [Example 3, 4-{3-[4-(3-{4-[amino(butoxycarbonylimino)methyl]phenoxy}propyl)-1-piperidinyl]propoxy}-N′-(butoxycarbonyl)benzamidine], the mice survived in data set [1] was determined as 80%. Further, in data set [2], the “ALT (alanine aminotransferase) in plasma” value is “No abnormality” and the “AST (aspartate aminotransferase) in plasma” value is recorded as “No abnormality”. Moreover, the IC50 on human CYP2D6 is > 72 µM.

For the origin of these results see patent US8536343B2, “Arylamidine derivative, salt thereof and antifungal agent containing those” (Toyama Chemical Co., Ltd., priority 2005, dated 2013).
